Measurements from US11700853B2, “Plant health compositions comprising a water-soluble pesticide and a water-insoluble agrochemical” (priority 2010, dated 2023).
≈ marks a conversion by molar mass, not a printed value.

What was measured:
[1] = at 20° C.; cited from earlier work
[2] = Dissolution in surfactants at 20% w/v on heating in a water bath, then cooling to room temperature; conditions: for Dissolution temp.: temperature at which the mixture cleared
[3] = Dissolution/melting temperature in surfactants by differential scanning calorimetry (DSC); conditions: for effect of surfactants on dissolution/melting temperature: cationic, nonionic and anionic surfactants tested, compared to absence of a surfactant
[4] = 20% w/v in AGM-550, cooled to 20-25° C. after 45 ° C.
[5] = 20% w/v in Ethomeen T/15, cooled to 20-25° C. after 50 ° C.
[6] = 20% w/v in Ethomeen T/15 at 45 ° C.
[7] = 20% w/v in Ethomeen T/15 at 50 ° C.
[8] = 20% w/v in coco quaternary amine 2 EO (Ethoquad C/12)
[9] = 20% w/v in cocoamine 2EO (Ethomeen C/12)

CCC(Oc1ccc(F)c(C(F)(F)F)c1)C(=O)NCc1ccccc1 (stereo not drawn) [beflubutamid]
water solubility (Solub.) [1]: 3.3 µg/mL (≈ 9.29 µM)

CC(=O)O.CC1CN(C2CCCCCCCCCCC2)CC(C)O1 (stereo not drawn) [dedemorph acetate]
water solubility (Solub.) [1]: 736 µg/mL

COP(=O)(OC)O/C(=C\Cl)c1ccc(Cl)cc1Cl [dimethylvinphos]
water solubility (Solub.) [1]: 0.13 µg/mL (≈ 0.392 µM)

CCC(C)c1cc([N+](=O)[O-])cc([N+](=O)[O-])c1OC(=O)OC(C)C (stereo not drawn) [dinobuton]
water solubility (Solub.) [1]: 0.1 µg/mL (≈ 0.306 µM)

CC1CN(C2CCCCCCCCCCC2)CC(C)O1 (stereo not drawn) [dodemorph]
water solubility (Solub.) [1]: <100 µg/mL

CCOCOc1ccc(C(=O)Nc2cccc(Cl)c2Cl)cc1 [etobenzanid]
water solubility (Solub.) [1]: 0.9 µg/mL (≈ 2.65 µM)

CC(Oc1ccc(Cl)cc1Cl)C(=O)NC(C)(C#N)C(C)C (stereo not drawn) [fenoxanil]
water solubility (Solub.) [1]: 30.7 µg/mL (≈ 93.2 µM)

CCOC(=O)[C@@H](C)Oc1ccc(Oc2nc3ccc(Cl)cc3o2)cc1 [fenoxaprop-P-ethyl]
water solubility (Solub.) [1]: 0.7 µg/mL (≈ 1.93 µM)

CCOC(=O)C(C)Oc1ccc(Oc2nc3ccc(Cl)cc3o2)cc1 (stereo not drawn) [fenoxaprop-ethyl]
water solubility (Solub.) [1]: 0.9 µg/mL (≈ 2.49 µM)

CCOC(=O)NCCOc1ccc(Oc2ccccc2)cc1 [fenoxycarb]
water solubility (Solub.) [1]: 7.9 µg/mL (≈ 26.2 µM)

CCCCCOC(=O)COc1cc(N2C(=O)C3=C(CCCC3)C2=O)c(F)cc1Cl [flumiclorac-pentyl]
water solubility (Solub.) [1]: 0.2 µg/mL (≈ 0.472 µM)

CCOC(=O)C(C)Oc1ccc(Oc2ncc(C(F)(F)F)cc2Cl)cc1 (stereo not drawn) [haloxyfop-ethyl]
water solubility (Solub.) [1]: 0.6 µg/mL (≈ 1.54 µM)

C=CCOC(Cn1ccnc1)c1ccc(Cl)cc1Cl (stereo not drawn) [imazalil]
water solubility (Solub.) [1]: 0.1 µg/mL (≈ 0.336 µM)

C#CCOc1ccc(CCNC(=O)C(OCC#C)c2ccc(Cl)cc2)cc1OC (stereo not drawn) [mandipropamid]
water solubility (Solub.) [1]: 4.2 µg/mL (≈ 10.2 µM)

CCOC(=O)C1=NN(c2ccc(Cl)cc2Cl)C(C)(C(=O)OCC)C1 (stereo not drawn) [mefenpyr-diethyl]
water solubility (Solub.) [1]: 20 µg/mL (≈ 53.6 µM)

CO/C=C(/C(=O)OC)c1ccccc1COc1cccc(C(F)(F)F)n1 [picoxystrobin]
water solubility (Solub.) [1]: 3.1 µg/mL (≈ 8.44 µM)

CCOP(=S)(OCC)Oc1ccc(=O)n(-c2ccccc2)n1 [pyridaphenthion]
water solubility (Solub.) [1]: 55.2 µg/mL (≈ 162 µM)

CCOC(=O)[C@@H](C)Oc1ccc(Oc2cnc3cc(Cl)ccc3n2)cc1 [quizalofop-P-ethyl]
Observation at room temp. [2, 4]: Dissolved
Dissolution temp. ([2]; 20% w/v in AGM-550): 45 °C
Observation ([2]; 20% w/v in AGM-550 at 45 ° C.): Dissolved
Observation at room temp. ([2]; 20% w/v in Armeen APA 9, cooled to 20-25° C. after 50 ° C.): Dissolved
Dissolution temp. ([2]; 20% w/v in Armeen APA 9): 50 °C
Observation ([2]; 20% w/v in Armeen APA 9 at 45 ° C.): Not Dissolved
Observation ([2]; 20% w/v in Armeen APA 9 at 50 ° C.): Dissolved
Observation at room temp. ([2]; 20% w/v in Ethomeen C/12, cooled to 20-25° C. after 55 ° C.): Dissolved
Observation at room temp. ([2]; 20% w/v in Ethomeen C/12, cooled to 20-25° C. after 65 ° C.): Dissolved
Observation ([2]; 20% w/v in Ethomeen C/12 at 50 ° C.): Not Dissolved
Observation ([2]; 20% w/v in Ethomeen C/12 at 55 ° C.): Dissolved
Observation ([2]; 20% w/v in Ethomeen C/12 at 65 ° C.): Dissolved
Observation at room temp. [2, 5]: Dissolved
Dissolution temp. ([2]; 20% w/v in Ethomeen T/15): 50 °C
Observation [2, 6]: Not Dissolved
Observation [2, 7]: Dissolved
Observation at room temp. ([2]; 20% w/v in Ethoquad C/12, cooled to 20-25° C. after 65 ° C.): Dissolved
Observation ([2]; 20% w/v in Ethoquad C/12 at 55 ° C.): Not Dissolved
Observation ([2]; 20% w/v in Ethoquad C/12 at 65 ° C.): Dissolved
Observation ([2]; 20% w/v in alkylamine oxide at 60 ° C.): Dissolved
Observation at room temp. ([2]; 20% w/v in alkylamine oxide, cooled to 20-25° C. after 60 ° C.): Dissolved
Dissolution temp. ([2]; 20% w/v in alkylamine oxide): 60 °C
Dissolution temp. [2, 8]: 65 °C
Dissolution temp. [2, 9]: 55 °C
melting/dissolution point ([3]; 40 wt % in C6-9 amidopropyl dimethylamine surfactant (ARMEEN APA 9), FIG. 16): 63 °C
melting/dissolution point ([3]; 65 wt % in C6-9 amidopropyl dimethylamine surfactant (ARMEEN APA 9), FIG. 16): 69 °C
effect of surfactants on dissolution/melting temperature [3]: reduced

C=CCNC(=O)c1c([Si](C)(C)C)sc(C)c1C [silithiofam]
water solubility (Solub.) [1]: 39.9 µg/mL (≈ 149 µM)

CC(C)(C)C(O)(CCc1ccc(Cl)cc1)Cn1cncn1 (stereo not drawn) [tebuconazole]
Observation at room temp. [2, 4]: Dissolved
Dissolution temp. ([2]; 20% w/v in AGM-550): 45 °C
Observation ([2]; 20% w/v in AGM-550 at 45 ° C.): Dissolved
Observation at room temp. ([2]; 20% w/v in Armeen APA 9, cooled to 20-25° C. after 40 ° C.): Dissolved
Dissolution temp. ([2]; 20% w/v in Armeen APA 9): 40 °C
Observation ([2]; 20% w/v in Armeen APA 9 at 40 ° C.): Dissolved
Observation at room temp. ([2]; 20% w/v in Ethomeen C/12, cooled to 20-25° C. after 45 ° C.): Dissolved
Observation ([2]; 20% w/v in Ethomeen C/12 at 45 ° C.): Dissolved
Observation at room temp. [2, 5]: Dissolved
Dissolution temp. ([2]; 20% w/v in Ethomeen T/15): 50 °C
Observation [2, 6]: Not Dissolved
Observation [2, 7]: Dissolved
Observation at room temp. ([2]; 20% w/v in Ethoquad C/12, cooled to 20-25° C. after 45 ° C.): Dissolved
Observation ([2]; 20% w/v in Ethoquad C/12 at 45 ° C.): Dissolved
Observation at room temp. ([2]; 20% w/v in Surfonic L24-9, cooled to 20-25° C. after 50 ° C.): Dissolved
Dissolution temp. ([2]; 20% w/v in Surfonic L24-9): 50 °C
Observation ([2]; 20% w/v in Surfonic L24-9 at 45 ° C.): Not Dissolved
Observation ([2]; 20% w/v in Surfonic L24-9 at 50 ° C.): Dissolved
Observation ([2]; 20% w/v in alkylamine oxide at 45 ° C.): Dissolved
Observation at room temp. ([2]; 20% w/v in alkylamine oxide, cooled to 20-25° C. after 45 ° C.): Dissolved
Dissolution temp. ([2]; 20% w/v in alkylamine oxide): 45 °C
Dissolution temp. [2, 8]: 45 °C
Dissolution temp. [2, 9]: 45 °C
melting/dissolution point ([3]; 40 wt % in ethoxylated cocoamine (2EO) surfactant, FIG. 14): 71 °C
melting/dissolution point ([3]; 65 wt % in ethoxylated cocoamine (2EO) surfactant, FIG. 14): 91 °C
dissolution/melting point, rank among surfactants tested ([3]; amidopropylamine surfactant): lowest
effect of surfactants on dissolution/melting temperature [3]: reduced

COP(=S)(OC)Oc1c(Cl)cc(C)cc1Cl [tolclofos-methyl]
water solubility (Solub.) [1]: 1.1 µg/mL (≈ 3.65 µM)

Cc1ccc(N(SC(F)(Cl)Cl)S(=O)(=O)N(C)C)cc1 [tolyfluanid]
water solubility (Solub.) [1]: 0.9 µg/mL (≈ 2.59 µM)

CC(C)(C)C(=O)C(Oc1ccc(Cl)cc1)n1cncn1 (stereo not drawn) [triadimefon]
water solubility (Solub.) [1]: 64 µg/mL (≈ 218 µM)

anilofos
water solubility (Solub.) [1]: 13.6 µg/mL

beta-cypermemethrin
water solubility (Solub.) [1]: 51.5 µg/mL

butafenamid
water solubility (Solub.) [1]: 3.3 µg/mL
